# ChEMBL document CHEMBL5226329, “Synthetic and computational efforts towards the development of peptidomimetics and small-molecule SARS-CoV 3CLpro inhibitors” (Bioorg Med Chem, 2021)
# Where a SMILES comes first, the peptide text is derived from it. The star is where a group is joined. Cbz = O=C(OCc1ccccc1)*; CF3 = FC(F)(F)*
# Legend:
# [1] = Inhibition of recombinant Hepatitis A virus proteinase 3C using Ac-Leu-Ala-Ala-OH as a substrate expressed in Escherichia coli incubated for 15 mins by SDS-PAGE assay; design: species or system Hepatovirus A
# [2] = Inhibition of Severe acute respiratory syndrome coronavirus proteinase 3C using (Dabcyl-KTSAVLQSGFRKME-Edans peptide as a substrate by fluorescence based assay; design: species or system Severe acute respiratory syndrome-related coronavirus
# [3] = Inhibition of Severe acute respiratory syndrome coronavirus proteinase 3C using (Dabcyl-KTSAVLQSGFRKME-Edans peptide as a substrate assessed as inhibition constant by fluorescence based assay; design: species or system Severe acute respiratory syndrome-related coronavirus
# [4] = Inhibition of Severe acute respiratory syndrome coronavirus proteinase 3C using Abz-SVTLQSG-Tyr(NO2)R peptide as a substrate; design: species or system Severe acute respiratory syndrome-related coronavirus
# [5] = Inhibition of Severe acute respiratory syndrome coronavirus proteinase 3C using Dabcy-KTSAVLQSGFRKME-Edans peptide as a substrate; design: species or system Severe acute respiratory syndrome-related coronavirus
# [6] = Inhibition of Severe acute respiratory syndrome coronavirus proteinase 3C using Dabcy-KTSAVLQSGFRKME-Edans peptide as a substrate incubated for 10 mins by fluorescence based assay; design: species or system Severe acute respiratory syndrome-related coronavirus
# [7] = Inhibition of Severe acute respiratory syndrome coronavirus proteinase 3C by FRET assay; design: species or system Severe acute respiratory syndrome-related coronavirus
# [8] = Inhibition of Severe acute respiratory syndrome coronavirus proteinase 3C assessed as inhibition constant by spectrophotometry assay; design: species or system Severe acute respiratory syndrome-related coronavirus
# [9] = Inhibition of Severe acute respiratory syndrome coronavirus proteinase 3C using EDANS-Val-Asn-Ser-Thr-Leu-Gln-Ser-Gly-Leu-Arg-Lys-(Dabcyl)-Met substrate incubated for 1 hr by fluorescence based assay; design: species or system Severe acute respiratory syndrome-related coronavirus
smiles,measurement,setting,value
CC(=O)N[C@@H](CC(C)C)C(=O)N[C@@H](C)C(=O)N[C@@H](C)C(=O)N[C@@H](C[C@@H]1CCNC1=O)C(=O)Cn1[nH]c(=O)c2c([N+](=O)[O-])cccc2c1=O,IC50,[1],1600 nM
CC(=O)N[C@@H](CC(C)C)C(=O)N[C@@H](C)C(=O)N[C@@H](C)C(=O)N[C@@H](CCC(=O)N(C)C)C(=O)Cn1[nH]c(=O)c2ccccc2c1=O,IC50,[1],13000 nM
CN(C)c1ccc(C(=O)N[C@@H](Cc2ccccc2)C(=O)Nc2ccc([N+](=O)[O-])cc2Cl)cc1,IC50,[2],60 nM
same,Ki,[3],30 nM
CC(=O)N[C@H](C(=O)N[C@H](C(=O)N[C@@H](CC(C)C)C(=O)N[C@@H](C[C@@H]1CCNC1=O)C(=O)Cn1[nH]c(=O)c2c([N+](=O)[O-])cccc2c1=O)C(C)OCc1ccccc1)C(C)C (stereo not given in full),IC50,[4],600 nM
O=C[C@H](C[C@@H]1CCNC1=O)NC(=O)[C@H](Cc1ccccc1)NC(=O)/C=C/c1ccc(Cl)cc1F,IC50,[5],200 nM
O=C(/C=C/c1ccccc1)Nc1ccccc1SC(=O)/C=C/c1ccccc1,IC50,[6],1060 nM
same,IC50,[7],1060 nM
CC(C)C[C@H](NC(=O)[C@@H](NC(=O)OCc1ccccc1)C(C)C)C(=O)N[C@@H](CCC(=O)O)C(=O)C(F)(F)F (Cbz-Val-Leu-Glu-CF3),Ki,[8],116000 nM
CN(C)CCCSc1ccccc1NC(=O)/C=C/c1ccccc1 [CINANSERIN],IC50,[9],19000 nM
